Source: article PMC9598656, “In Vitro Activity of Robenidine Analogues NCL259 and NCL265 against Gram-Negative Pathogens” (Antibiotics, 2022)
Converted amounts (≈) assume the structure as drawn.

Legend:
[1] = tested on: HEL 299 (non-cancerous human lung fibroblast cell line); experiment: In vitro cytotoxicity, WST-1; format: cell-based; settings: HEL 299, 24 h
Excerpt: (§1) Potential toxicity of NCL259 and NCL265 to mammalian cells relative to the parent compound (NCL812) was examined using Caco-2 (human colorectal adenocarcinoma cell line), HEL 299 (non-cancerous human lung fibroblast cell line), Hep G2 (human hepatocellular carcinoma cell line), MCF-7 (human mammary gland adenocarcinoma cell line), MDBK (normal Madin–Darby bovine kidney cell line) and Vero (normal adult African green monkey cell line), essentially as described previously. Toxicity to the cell lines was performed using serial two-fold dilutions of each compound from 128 to 1 μg/mL in duplicates in flat bottom 96 well tissue culture trays (Sarstedt 83.3924) containing approximately 2 × 10^4 cells per well in antibiotic-free Dulbecco’s Modified Eagle’s Medium (DMEM; Gibco Cat No: 12430; Thermo Fisher Scientific, Scoresby, VIC, Australia) consisting of 10% (v/v) fetal bovine serum at 37 °C, 5% CO2 for 24 h. Duplicate wells containing ampicillin at 128 to 1 μg/mL were used as controls. Thereafter, 10% (v/v) of the WST-1 cell proliferation assay reagent (Cat No: 05015944001; Roche Life Science, North Ryde, NSW, Australia) was added to each well, the trays were further incubated at 37 °C, 5% CO2 for 1 h and absorbance read at A450nm on a Multiskan Ascent 354 Spectrophotometer (Labsystems, Lilydale, VIC, Australia). The inhibitory concentration of each compound was determined as the half maximal inhibitory concentration (IC50) at A450nm.

[2] = tested on: Hep G2 (human hepatocellular carcinoma cell line); experiment: In vitro cytotoxicity, WST-1; format: cell-based; settings: HepG2, 24 h
Excerpt: as §1

[3] = tested on: Vero (normal adult African green monkey cell line); experiment: In vitro cytotoxicity, WST-1; format: cell-based; settings: Chlorocebus sabaeus, 24 h
Excerpt: as §1

[4] = tested on: MDBK (normal Madin–Darby bovine kidney cell line); experiment: In vitro cytotoxicity, WST-1; format: cell-based; settings: Bos taurus, 24 h
Excerpt: as §1

[5] = tested on: MCF-7 (human mammary gland adenocarcinoma cell line); experiment: In vitro cytotoxicity, WST-1; format: cell-based; settings: MCF7, 24 h
Excerpt: as §1

[6] = tested on: K. oxytoca 13GNB–582; experiment: Checkerboard assay with PAβN; format: cell-based; settings: for concentration at the marked interaction: resazurin
Protocol: (§2) MICs of NCL259 or NCL265 in the presence of the efflux pump inhibitor, PAβN were determined using a checkerboard assay. […] Briefly, a two-fold serial dilution of each antimicrobial solution was prepared in its appropriate solvent (e.g., DMSO for robenidine analogues and Milli-Q water for PAβN), and 1 μL of each dilution was added from wells 12 to 3 (12.8–0.25 μg/mL for robenidine analogues, and 32–2 μg/mL for PAβN). Thereafter, 89 μL of LB broth was added to each well followed by the addition of 10 μL of bacterial suspension (1–5 × 10^6 CFU/mL) to each well. In this manner, the final concentration of DMSO in each well was 1%. The plate was subsequently incubated at 37 °C for 24 h. The resazurin assay was used for assessment of drug susceptibility of NCL259 and NCL265 (Supplementary Table S1–S6). The same method was also used to test the MICs of NCL259 or NCL265 in the presence of PMB against a range of Gram-negative reference strains (E. coli ATCC 25922, E. coli ATCC 10763, P. aeruginosa PAO1, P. aeruginosa ATCC 27853, A. baumannii ATCC 12457, A. baumannii ATCC 19606, K. pneumoniae ATCC 4352 and K. pneumoniae ATCC 33495). Stock solutions were prepared prior to use (25.6–0.25 mg/mL for robenidine analogues; 12.8–0.25 mg/mL for PMB). The interaction of two antibiotics was calculated as the fractional inhibitory concentration index (FICI) using the following formula:(1) FICI=MICA in combination/MICA alone+MICB in combination/MICB alone where A is NCL259 or NCL265 and B is PAβN or PMB. According to FICI calculations, the interaction between two compounds were interpreted as follows: synergistic (FICI ≤ 0.5); additive or partially synergistic (0.5 < FICI ≤ 1); indifferent (1 < FICI ≤ 4); and antagonistic (FICI > 4), as described previously. The dose reduction index (DRI) was used to describe the difference between the effective doses of NCL259 or NCL265 in combination with PMB or PAβN in comparison to their individual doses, using the following formula:(2) DRI=MICA alone/MICA in combination
(§3) Evaluation of DRI is important clinically because it can allow the dose of a potentially toxic drug to be lowered in combination with another compound without reducing the drug’s efficacy. A DRI higher than 1 is viewed as beneficial.

[7] = tested on: E. coli ATCC 25922; experiment: Checkerboard assay with PMB; format: cell-based, Escherichia coli; settings: for MIC, Combination: NCL259 or NCL265 with PMB; for Combination Effect / FICI: with PMB
Protocol: as §2, §3

[8] = tested on: E. coli ATCC 10763; experiment: Checkerboard assay with PMB; format: cell-based, Escherichia coli; settings: for MIC, Combination: NCL259 or NCL265 with PMB; for Combination Effect / FICI: with PMB
Protocol: as §2, §3

[9] = tested on: E. coli ATCC 25922; settings: cited from earlier work; for reduction in CFU (bactericidal): E. coli ATCC 25922, after 30 min treatment; for reduction of colony forming units: within 20 min at the MIC
[10] = tested on: Caco-2 (human colorectal adenocarcinoma cell line); experiment: In vitro cytotoxicity, WST-1; format: cell-based; settings: Caco-2, 24 h
[11] = first of two independent experiments
[12] = second of two independent experiments
[13] = K. oxytoca 13GNB–582, PAβN + NCL265
[14] = Table S6, NCL265 + PAβN, replicate 1
[15] = Table S6, NCL265 + PAβN, replicate 2
[16] = K. oxytoca 13GNB–582, PAβN + NCL259
[17] = Table S3, NCL259 + PAβN, replicate 1
[18] = Table S3, NCL259 + PAβN, replicate 2

SMILES	IC50 [1, 11] [mg/L]	IC50 [1, 12] [mg/L]	IC50 [2, 11] [mg/L]	IC50 [2, 12] [mg/L]	IC50 [3, 11] [mg/L]	IC50 [3, 12] [mg/L]	IC50 [4, 11] [mg/L]	IC50 [4, 12] [mg/L]	IC50 [5, 11] [mg/L]	IC50 [5, 12] [mg/L]	MIC, Combination [7] [mg/L]	Combination Effect [7]	FICI [7]	MIC, Combination [8] [mg/L]	Combination Effect [8]	FICI [8]	reduction in CFU (bactericidal) [9] [log 10]	reduction of colony forming units [9] [%]	IC50 [10, 11] [mg/L]	IC50 [10, 12] [mg/L]	further results
[H]/N=C(\N)NN=C(CCCCCC)c1ccc(Cl)cc1 [NCL265, (E)-2-(1-(4-chlorophenyl)heptylidene)hydrazine-1-carboximidamide]	< 2	< 2	< 1	< 1	6 (≈ 21.4 µM)	3 (≈ 10.7 µM)	3 (≈ 10.7 µM)	2 (≈ 7.12 µM)	< 1	6 (≈ 21.4 µM)	1	Additivity (additive or partially synergistic, 0.5 < FICI ≤ 1)	0.75	0.25	Synergism (synergistic, FICI ≤ 0.5)	0.254	> 5	100	< 1	< 2	DRI PAβN:NCL265 ([6]; K. oxytoca 13GNB–582): 128; Combination Effect [6, 13]: Additivity (additive or partially synergistic, 0.5 < FICI ≤ 1); FICI [6, 13]: 0.508; MIC, Combination [6, 13]: 2 mg/L; interaction [6, 14]: synergistic (synergistic (FICI ≤ 0.5)); interaction [6, 15]: synergistic (synergistic (FICI ≤ 0.5)); concentration at the marked interaction [6, 14]: 4 µg/mL; concentration at the marked interaction [6, 15]: 8 µg/mL; Dose Reduction Index (DRI) PMB:NCL265 ([7]; PMB + NCL265): 4; Dose Reduction Index (DRI) PMB:NCL265 ([8]; PMB + NCL265): 256
[H]/N=C(\N)NN=C(CC1CCCCC1)c1ccc(Cl)cc1 [NCL259, (E)-2-(1-(4-chlorophenyl)-2-cyclohexylethylidene)hydrazine-1-carboximidamide]	< 2	< 2	< 1	< 1	6 (≈ 20.5 µM)	3 (≈ 10.2 µM)	2 (≈ 6.83 µM)	2 (≈ 6.83 µM)	3 (≈ 10.2 µM)	6 (≈ 20.5 µM)	1	Additivity (additive or partially synergistic, 0.5 < FICI ≤ 1)	0.563	0.25	Additivity (additive or partially synergistic, 0.5 < FICI ≤ 1)	0.504	> 5	100	< 1	3 (≈ 10.2 µM)	DRI PAβN:NCL259 ([6]; K. oxytoca 13GNB–582): 32; Combination Effect [6, 16]: Synergism (synergistic, FICI ≤ 0.5); FICI [6, 16]: 0.281; MIC, Combination [6, 16]: 8 mg/L; interaction [6, 17]: synergistic (synergistic (FICI ≤ 0.5)); interaction [6, 18]: synergistic (synergistic (FICI ≤ 0.5)); concentration at the marked interaction [6, 17]: 8 µg/mL; concentration at the marked interaction [6, 18]: 8 µg/mL; Dose Reduction Index (DRI) PMB:NCL259 ([7]; PMB + NCL259): 16; Dose Reduction Index (DRI) PMB:NCL259 ([8]; PMB + NCL259): 256
